“Also recorded” adds a separate entry of the source.
System: permanent middle cerebral artery occlusion (MCAO) in rats
Test: Functional recovery following permanent MCAO in rats (Example 1)
Type: in vivo, Sprague Dawley Rats
Description: The purpose of this study was to evaluate the efficacy of arimoclomol and iroxanadine in enhancing neurological recovery in a model of permanent middle cerebral artery occlusion (MCAO) in rats. The permanent MCAO is a well accepted and considered to be a standard animal model for studying clinical aspects of stroke. (Stroke. 1999; 30:2752-2758.)
Forty male Sprague Dawley Rats, each weighing 300-400 g, which had been housed and handled for behavioral assessment for seven (7) days prior to surgery for acclimation purposes, were operated under anesthesia to create focal cerebral infarcts by permanent occlusion of the proximal right middle cerebral artery (MCA) according to modified Tamura model. Briefly, the rats were anesthetized with 2-3% halothane in the mixture of N2O:O2 (2:1), and were maintained with 1˜1.5% halothane in the mixture of N2O:O2 (2:1). The temporalis muscle was bisected and reflected through an incision made midway between the eye and the eardrum canal. The proximal MCA was exposed through a subtemporal craniectomy without removing the zygomatic arch and without transecting the facial nerve. […] Body temperature was maintained at 37.5° C.±0.5° C. throughout the entire procedure. Cefazolin (40 mg/kg; Baxter, Lot 06014.1, Exp. January 2009) was given i.p. one day before MCAO and just after MCAO to prevent infections.
The rats were randomly divided into 4 groups of 10 animals each. One group was given arimoclomol, p.o., starting at one hour after the occlusion at 200 mg/kg/d once daily for 3 days, then 50 mg/kg/d once daily for a total of 29 days. The second group was given iroxanadine using the same dosing regimen as for arimoclomol. The third group is a positive control group and is given intracistemally 1 μg (at 20 μg/ml, also containing 100 μg/ml of bovine serum albumin) beta-fibroblast growth factor (bFGF) one hour and one day (i.e. two administrations) after the occlusion. The fourth group is a negative control with administration of the vehicle only.
Animals were evaluated preoperation (day −1), then every 7 days after the operation (7, 14, 21, and 28 days) by forelimb and hindlimb placing tests and body swing test, which are widely accepted as standard tests indicative of functional recovery after a stroke model.
For the forelimb placing test, the examiner held the rat close to a tabletop and scored the rat's ability to place the forelimb on the tabletop in response to whisker, visual, tactile, or proprioceptive stimulation. Similarly, for the hindlimb placing test, the examiner assessed the rat's ability to place the hindlimb on the tabletop in response to tactile and proprioceptive stimulation. Separate sub-scores were obtained for each mode of sensory input (halfpoint designations possible), and added to give total scores (for the forelimb placing test: 0=normal, 12=maximally impaired; for the hindlimb placing test: 0=normal; 6=maximally impaired).
For the body swing test, the rat was held approximately one inch from the base of its tail. It was then elevated to an inch above a surface of a table. The rat was held in the vertical axis, defined as no more than […] to either the left or the right side. A swing was recorded whenever the rat moved its head out of the vertical axis to either side. The rat must return to the vertical position for the next swing to be counted. Thirty (30) total swings were counted. A normal rat typically has an equal number of swings to either side. Following focal ischemia, the rat tends to swing to the contralateral (left) side.
The behavior was evaluated by giving the score ranging in the parentheses after each test: • Forelimb placing test (0-12), consisting of whisker tactile placing (0-2); visual placing (forward, sideways) (0-4); tactile placing (dorsal, lateral) (0-4); and proprioceptive placing (0-2); • Hindlimb placing test (0-6), consisting of tactile placing (dorsal, lateral) (0-4); and proprioceptive placing (0-2). […]

[1] = treatment from 1 h after occlusion, up to 28 days

SMILES: [O-][n+]1cccc(/C(Cl)=N/OC[C@H](O)CN2CCCCC2)c1 [arimoclomol, N-[2-hydroxy-3-(1-piperidinyl)propoxy]-pyridine-1-oxide-3-carboximidoyl chloride]
- Infarct Volume (%) (day 28 after permanent MCAO, percentage of intact contralateral hemispheric volume, mean ± S.E.M.): 21.6 ± 3.6%
- Body Swing Test, recovery compared to vehicle group [1]: superior to the vehicle group; also recorded: non-significant trend of enhanced recovery
- Forelimb Placing Test, recovery compared to vehicle group [1]: superior to the vehicle group
- Hindlimb Placing Test, recovery compared to vehicle group [1]: superior to the vehicle group

From US20090233917A1, “Stroke recovery” (priority 2006, published 2009)
